Data published in PubChem BioAssay AID256 (DTP/NCI, 2004).
Inconclusive results and toxic doses are left out.

Test system: CD2F1 mice, L1210 leukemia ip, survival T/C
Test: NCI In Vivo Anticancer Drug Screen. Data for tumor model L1210 Leukemia (intraperitoneal) in CD2F1 (CDF1) mice
Details: higher = longer survival
Outline: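 Each value reflects a quotient of treated over vehicle control outcomes in mice with a transplanted tumor.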

[1] = endpoint: mean survival time, dose: 25.0 mg/kg/injection, schedule: Q01DX005 (ip), vehicle: water
[2] = endpoint: mean survival time, dose: 50.0 mg/kg/injection, schedule: Q01DX005 (ip), vehicle: water
[3] = endpoint: mean survival time, dose: 100.0 mg/kg/injection, schedule: Q01DX005 (ip), vehicle: water
[4] = endpoint: mean survival time, dose: 200.0 mg/kg/injection, schedule: Q01DX005 (ip), vehicle: water

CCSC(C(O)C(O)C(O)C(O)CO)n1cnc2c(=S)nc[nH]c21 (configuration not stated)
T/C [1]: 94 % of control
T/C [2]: 97 % of control
T/C [3]: 96 % of control
T/C (endpoint: mean survival time, dose: 177.0 mg/kg/injection, schedule: Q01DX009 (ip), vehicle: saline with Tween-80): 107 % of control
T/C [4]: 96 % of control
T/C (endpoint: mean survival time, dose: 265.0 mg/kg/injection, schedule: Q01DX009 (ip), vehicle: saline with Tween-80): 102 % of control
T/C (endpoint: mean survival time, dose: 600.0 mg/kg/injection, schedule: Q01DX009 (ip), vehicle: saline with Tween-80): 150 % of control

O/N=C1/CCCC/C1=C/c1ccccc1Cl
T/C (endpoint: mean survival time, dose: 100.0 mg/kg/injection, schedule: Q01DX009 (ip), vehicle: saline with Tween-80): 95 % of control
T/C (endpoint: mean survival time, dose: 200.0 mg/kg/injection, schedule: Q01DX009 (ip), vehicle: saline with Tween-80): 97 % of control
T/C (endpoint: mean survival time, dose: 400.0 mg/kg/injection, schedule: Q01DX009 (ip), vehicle: saline with Tween-80): 100 % of control

O=c1[nH]c(=O)n(C2CC(O)C(CO)O2)cc1F (configuration not stated)
T/C (endpoint: mean survival time, dose: 5.0 mg/kg/injection, schedule: Q#A X018 (ip), vehicle: saline): 115 % of control
T/C (endpoint: mean survival time, dose: 9.0 mg/kg/injection, schedule: Q#A X018 (ip), vehicle: saline): 121 % of control
T/C (endpoint: mean survival time, dose: 12.5 mg/kg/injection, schedule: Q03HX024 (oral), vehicle: saline): 101 % of control
T/C (endpoint: mean survival time, dose: 16.0 mg/kg/injection, schedule: Q#A X018 (ip), vehicle: saline): 121 % of control
T/C [1]: 108 % of control
T/C (endpoint: mean survival time, dose: 25.0 mg/kg/injection, schedule: Q03HX008 (oral), vehicle: saline): 107 % of control
T/C (endpoint: mean survival time, dose: 25.0 mg/kg/injection, schedule: Q03HX016 (ip), vehicle: saline): 96 % of control
T/C (endpoint: mean survival time, dose: 26.0 mg/kg/injection, schedule: Q#A X018 (ip), vehicle: saline): 123 % of control
T/C (endpoint: mean survival time, dose: 31.3 mg/kg/injection, schedule: Q01DX005 (ip), vehicle: saline): 121 % of control
T/C (endpoint: mean survival time, dose: 37.5 mg/kg/injection, schedule: Q03DX003 (ip), vehicle: water): 121 % of control
T/C (endpoint: mean survival time, dose: 37.5 mg/kg/injection, schedule: Q04DX003 (ip), vehicle: water): 100 % of control
T/C (endpoint: mean survival time, dose: 43.0 mg/kg/injection, schedule: Q#A X018 (ip), vehicle: saline): 108 % of control
T/C [2]: 110 % of control
T/C (endpoint: mean survival time, dose: 50.0 mg/kg/injection, schedule: Q01DX009 (oral), vehicle: saline): 119 % of control
T/C (endpoint: mean survival time, dose: 50.0 mg/kg/injection, schedule: Q03HX008 (oral), vehicle: saline): 111 % of control
T/C (endpoint: mean survival time, dose: 50.0 mg/kg/injection, schedule: Q03HX016 (ip), vehicle: saline): 111 % of control
T/C (endpoint: mean survival time, dose: 50.0 mg/kg/injection, schedule: Q03HX024 (oral), vehicle: saline): 107 % of control
T/C (endpoint: mean survival time, dose: 72.0 mg/kg/injection, schedule: Q#A X018 (ip), vehicle: saline): 106 % of control
T/C (endpoint: mean survival time, dose: 75.0 mg/kg/injection, schedule: Q01DX007 (ip), vehicle: water): 100 % of control
T/C (endpoint: mean survival time, dose: 75.0 mg/kg/injection, schedule: Q01DX009 (ip), vehicle: water): 110 % of control
T/C (endpoint: mean survival time, dose: 75.0 mg/kg/injection, schedule: Q03DX003 (ip), vehicle: water): 122 % of control
T/C (endpoint: mean survival time, dose: 75.0 mg/kg/injection, schedule: Q04DX003 (ip), vehicle: water): 111 % of control
T/C (endpoint: mean survival time, dose: 80.0 mg/kg/injection, schedule: Q01DX009 (ip), vehicle: saline): 167 % of control
T/C [3]: 110 % of control
T/C (endpoint: mean survival time, dose: 100.0 mg/kg/injection, schedule: Q03HX024 (oral), vehicle: saline): 92 % of control
T/C (endpoint: mean survival time, dose: 100.0 mg/kg/injection, schedule: Q04DX003 (oral), vehicle: saline): 114 % of control
T/C (endpoint: mean survival time, dose: 120.0 mg/kg/injection, schedule: Q#A X018 (ip), vehicle: saline): 94 % of control
T/C (endpoint: mean survival time, dose: 125.0 mg/kg/injection, schedule: Q01DX001 (ip), vehicle: saline): 101 % of control
T/C (endpoint: mean survival time, dose: 125.0 mg/kg/injection, schedule: Q01DX001 (oral), vehicle: saline): 101 % of control
T/C (endpoint: mean survival time, dose: 125.0 mg/kg/injection, schedule: Q01DX001 (sc), vehicle: saline): 109 % of control
T/C (endpoint: mean survival time, dose: 125.0 mg/kg/injection, schedule: Q01DX009 (oral), vehicle: saline): 121 % of control
T/C (endpoint: mean survival time, dose: 125.0 mg/kg/injection, schedule: Q03HX008 (ip), vehicle: saline): 120 % of control
T/C (endpoint: mean survival time, dose: 125.0 mg/kg/injection, schedule: Q03HX016 (ip), vehicle: saline): 110 % of control
T/C (endpoint: mean survival time, dose: 125.0 mg/kg/injection, schedule: Q03HX024 (ip), vehicle: saline): 163 % of control
T/C (endpoint: mean survival time, dose: 125.0 mg/kg/injection, schedule: Q04DX003 (ip), vehicle: saline): 119 % of control
T/C (endpoint: mean survival time, dose: 125.0 mg/kg/injection, schedule: Q08DX002 (ip), vehicle: saline): 100 % of control
T/C (endpoint: mean survival time, dose: 150.0 mg/kg/injection, schedule: Q01DX007 (ip), vehicle: water): 100 % of control
T/C (endpoint: mean survival time, dose: 150.0 mg/kg/injection, schedule: Q01DX009 (ip), vehicle: water): 100 % of control
T/C (endpoint: mean survival time, dose: 160.0 mg/kg/injection, schedule: Q01DX009 (ip), vehicle: saline): 151 % of control
T/C (endpoint: mean survival time, dose: 200.0 mg/kg/injection, schedule: Q01DX001 (oral), vehicle: saline): 113 % of control
T/C [4]: 87 % of control
T/C (endpoint: mean survival time, dose: 200.0 mg/kg/injection, schedule: Q01DX009 (oral), vehicle: saline): 114 % of control
T/C (endpoint: mean survival time, dose: 200.0 mg/kg/injection, schedule: Q03HX008 (oral), vehicle: saline): 94 % of control
T/C (endpoint: mean survival time, dose: 200.0 mg/kg/injection, schedule: Q03HX016 (ip), vehicle: saline): 118 % of control
T/C (endpoint: mean survival time, dose: 200.0 mg/kg/injection, schedule: Q08DX002 (oral), vehicle: saline): 103 % of control
T/C (endpoint: mean survival time, dose: 200.0 mg/kg/injection, schedule: Q#A X018 (ip), vehicle: saline): 88 % of control
T/C (endpoint: mean survival time, dose: 250.0 mg/kg/injection, schedule: Q01DX001 (ip), vehicle: saline): 111 % of control
T/C (endpoint: mean survival time, dose: 250.0 mg/kg/injection, schedule: Q01DX001 (oral), vehicle: saline): 108 % of control
T/C (endpoint: mean survival time, dose: 250.0 mg/kg/injection, schedule: Q01DX001 (sc), vehicle: saline): 123 % of control
T/C (endpoint: mean survival time, dose: 250.0 mg/kg/injection, schedule: Q01DX009 (ip), vehicle: saline): 108 % of control
T/C (endpoint: mean survival time, dose: 250.0 mg/kg/injection, schedule: Q01DX009 (oral), vehicle: saline): 121 % of control
T/C (endpoint: mean survival time, dose: 250.0 mg/kg/injection, schedule: Q01DX009 (sc), vehicle: saline): 122 % of control
T/C (endpoint: mean survival time, dose: 250.0 mg/kg/injection, schedule: Q03HX024 (ip), vehicle: saline): 155 % of control
T/C (endpoint: mean survival time, dose: 250.0 mg/kg/injection, schedule: Q04DX003 (ip), vehicle: saline): 162 % of control
T/C (endpoint: mean survival time, dose: 250.0 mg/kg/injection, schedule: Q08DX002 (ip), vehicle: saline): 115 % of control
T/C (endpoint: mean survival time, dose: 320.0 mg/kg/injection, schedule: Q01DX009 (ip), vehicle: saline): 102 % of control
T/C (endpoint: mean survival time, dose: 400.0 mg/kg/injection, schedule: Q01DX001 (oral), vehicle: saline): 117 % of control
T/C (endpoint: mean survival time, dose: 400.0 mg/kg/injection, schedule: Q01DX009 (oral), vehicle: saline): 109 % of control
T/C (endpoint: mean survival time, dose: 400.0 mg/kg/injection, schedule: Q04DX003 (oral), vehicle: saline): 119 % of control
T/C (endpoint: mean survival time, dose: 400.0 mg/kg/injection, schedule: Q08DX002 (oral), vehicle: saline): 107 % of control
T/C (endpoint: mean survival time, dose: 500.0 mg/kg/injection, schedule: Q01DX001 (oral), vehicle: saline): 121 % of control
T/C (endpoint: mean survival time, dose: 500.0 mg/kg/injection, schedule: Q03HX016 (ip), vehicle: saline): 154 % of control
T/C (endpoint: mean survival time, dose: 500.0 mg/kg/injection, schedule: Q03HX024 (ip), vehicle: saline): 121 % of control
T/C (endpoint: mean survival time, dose: 500.0 mg/kg/injection, schedule: Q08DX002 (ip), vehicle: saline): 164 % of control
T/C (endpoint: mean survival time, dose: 800.0 mg/kg/injection, schedule: Q04DX003 (oral), vehicle: saline): 110 % of control
T/C (endpoint: mean survival time, dose: 800.0 mg/kg/injection, schedule: Q08DX002 (oral), vehicle: saline): 156 % of control
T/C (endpoint: mean survival time, dose: 1000.0 mg/kg/injection, schedule: Q01DX001 (oral), vehicle: saline): 151 % of control
T/C (endpoint: mean survival time, dose: 1000.0 mg/kg/injection, schedule: Q01DX001 (sc), vehicle: saline): 159 % of control
T/C (endpoint: mean survival time, dose: 1000.0 mg/kg/injection, schedule: Q03HX008 (ip), vehicle: saline): 157 % of control
T/C (endpoint: mean survival time, dose: 1000.0 mg/kg/injection, schedule: Q03HX024 (ip), vehicle: saline): 92 % of control
T/C (endpoint: mean survival time, dose: 1000.0 mg/kg/injection, schedule: Q04DX003 (ip), vehicle: saline): 98 % of control
T/C (endpoint: mean survival time, dose: 1600.0 mg/kg/injection, schedule: Q01DX001 (oral), vehicle: saline): 103 % of control
T/C (endpoint: mean survival time, dose: 1600.0 mg/kg/injection, schedule: Q08DX002 (oral), vehicle: saline): 97 % of control
T/C (endpoint: median survival time, dose: 51.8 mg/kg/injection, schedule: Q04DX002 (ip), vehicle: saline): 107 % of control
T/C (endpoint: median survival time, dose: 86.4 mg/kg/injection, schedule: Q04DX002 (ip), vehicle: saline): 114 % of control
T/C (endpoint: median survival time, dose: 144.0 mg/kg/injection, schedule: Q04DX002 (ip), vehicle: saline): 121 % of control
T/C (endpoint: median survival time, dose: 400.0 mg/kg/injection, schedule: Q04DX002 (ip), vehicle: saline): 105 % of control
